Here are results for 8 molecules from PubChem BioAssay (NCI).

SMILES strings stand for the structures.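 Five compound concentrations were applied to cells in 96-well plates for 48 hours; endpoints were derived by simple linear interpolation of the resulting dose-response curve. GI50 = concentration required for 50% inhibition of growth. TGI is the concentration that stops growth completely.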

Some test systems named below: A498 renal; HCT-15 colon; HT29 colon; MALME-3M melanoma; MCF7 breast; MDA-MB-231 breast; MDA-MB-435; OVCAR-3 ovarian; OVCAR-4 ovarian; SF-295 CNS.
What all share (experiment): growth of human tumour cells (NCI), 48 h

As to `CCN(CC)CCCNc1nc2ccccc2c2c(=O)c3cc(Cl)ccc3sc12`, the GI50 in the test with A498 renal is 8.42 µM; in the test with HCT-15 colon, 1.61 µM; in the test on HT29 colon it was 1.9 µM; in the test with MALME-3M melanoma, 1.63 µM; in the test on MCF7 breast, 1.32 µM; in the test with MDA-MB-231 breast, 1.45 µM. Moreover, the GI50 with MDA-MB-435 is 1.89 µM; in the test with OVCAR-3 ovarian, 1.92 µM; with OVCAR-4 ovarian, 4.68 µM; with SF-295 CNS, 7.96 µM. Also, the TGI in the test on A498 renal is 21.4 µM; in the test on HCT-15 colon it was 3.14 µM; in the test with HT29 colon, 3.98 µM; in the test on MALME-3M melanoma, 3.26 µM; with MCF7 breast, 2.91 µM; in the test on MDA-MB-231 breast it was 3.27 µM. Moreover, the TGI with MDA-MB-435 was determined as 3.65 µM; in the test on OVCAR-3 ovarian it was 4.15 µM; in the test with OVCAR-4 ovarian, 22.7 µM; in the test with SF-295 CNS, 21.9 µM.
Turning to `CNc1cccnc1/C=N/NC(N)=S`, the TGI in the test with A498 renal is > 10 µM; in the test with HCT-15 colon it was > 7.32 µM; in the test on HT29 colon, > 10 µM; in the test with MALME-3M melanoma, > 10 µM; in the test on MCF7 breast, > 10 µM; in the test with MDA-MB-231 breast, > 10 µM. Besides, the TGI with MDA-MB-435 was > 10 µM; in the test with OVCAR-3 ovarian it was > 8.6 µM; in the test on OVCAR-4 ovarian, > 10 µM; in the test with SF-295 CNS, 5.71 µM.
Take `COc1ccc(Cn2cnc3cc(C(=O)Nc4cccc5ccccc45)ccc32)c(OC)c1`: the GI50 in the test on A498 renal was 0.0226 µM; with HCT-15 colon it was 0.0443 µM; in the test on HT29 colon, 0.0345 µM; in the test on MALME-3M melanoma, 0.0614 µM; with MCF7 breast it was 0.0357 µM; in the test on MDA-MB-231 breast, 0.0894 µM. Besides, the GI50 with MDA-MB-435 is 0.0173 µM; in the test on OVCAR-3 ovarian it was 0.0267 µM; in the test on OVCAR-4 ovarian it was 0.122 µM; in the test with SF-295 CNS it was 0.0341 µM. Further, the TGI in the test on A498 renal is 0.0771 µM; with HCT-15 colon, > 51.1 µM; in the test on HT29 colon, 5.18 µM; in the test with MALME-3M melanoma, > 100 µM; in the test with MCF7 breast, > 100 µM; in the test with MDA-MB-231 breast it was 4.31 µM. For the same molecule, the TGI with MDA-MB-435 is 0.0358 µM; in the test with OVCAR-3 ovarian it was 0.0776 µM; in the test on OVCAR-4 ovarian, > 100 µM; in the test on SF-295 CNS, > 100 µM.
`COc1cc2c3c(n(CCCCNC(=O)OCC4c5ccccc5-c5ccccc54)c(=O)c2cc1OC)-c1cc2c(cc1C3=O)OCO2`: the GI50 in the test on A498 renal is > 100 µM; with HCT-15 colon it was 12.9 µM; in the test on HT29 colon it was 16.9 µM; with MALME-3M melanoma it was > 100 µM; with MCF7 breast, 0.554 µM; in the test on MDA-MB-231 breast, 26.5 µM. The GI50 was 64.9 µM in the test on MDA-MB-435, 19.8 µM in the test with OVCAR-3 ovarian, > 100 µM in the test with OVCAR-4 ovarian and > 100 µM in the test on SF-295 CNS. Besides, the TGI was > 100 µM with A498 renal; 80.3 µM in the test on HCT-15 colon; > 100 µM with HT29 colon; > 100 µM with MALME-3M melanoma; 16.2 µM in the test with MCF7 breast; > 100 µM in the test on MDA-MB-231 breast. Further, the TGI with MDA-MB-435 is > 100 µM; with OVCAR-3 ovarian it was 62.5 µM; in the test with OVCAR-4 ovarian, > 100 µM; in the test on SF-295 CNS it was > 100 µM.
For `O=C1/C(=C/c2ccc([N+](=O)[O-])o2)Oc2ccccc21`, the GI50 in the test on A498 renal is 1.93 µM; in the test with HCT-15 colon, 0.341 µM; in the test on HT29 colon, 0.613 µM; in the test on MALME-3M melanoma it was 1.86 µM; in the test with MCF7 breast it was 0.827 µM; with MDA-MB-231 breast it was 1.54 µM. In addition, the GI50 with MDA-MB-435 is 1.79 µM; in the test with OVCAR-3 ovarian, 1.23 µM; in the test with OVCAR-4 ovarian it was 1.61 µM; with SF-295 CNS, 3.43 µM. Moreover, the TGI in the test with A498 renal turned out to be 4.4 µM; in the test with HCT-15 colon it was 1.43 µM; in the test with HT29 colon it was 2.84 µM; in the test with MALME-3M melanoma, 3.78 µM; in the test with MCF7 breast, 3.11 µM; in the test with MDA-MB-231 breast, 3.58 µM. In addition, the TGI in the test with MDA-MB-435 was found to be 4.01 µM; in the test with OVCAR-3 ovarian, 2.62 µM; in the test on OVCAR-4 ovarian, 3.65 µM; in the test on SF-295 CNS, 13.8 µM.
Consider `CN(C)c1ccc(/C=C/c2ccnc3ccccc23)cc1N`, for which the TGI in the test on A498 renal came to 22.3 µM; in the test on HCT-15 colon, 22.8 µM; with HT29 colon it was 17.7 µM; with MALME-3M melanoma, 28.8 µM; in the test on MCF7 breast, 8.29 µM; with MDA-MB-231 breast it was 20.1 µM. Also, the TGI worked out at 8.06 µM with MDA-MB-435, 10.2 µM with OVCAR-3 ovarian, 32.9 µM in the test on OVCAR-4 ovarian and 27.7 µM in the test on SF-295 CNS.
`O=c1[nH]ccc2nc(-c3ccc(CN4CCC(c5nc(-c6ccccn6)n[nH]5)CC4)cc3)c(-c3ccccc3)cc12`: the GI50 is < 0.0345 µM in the test with A498 renal; 16.5 µM with HCT-15 colon; 1.98 µM with HT29 colon; 2.09 µM with MALME-3M melanoma; 0.282 µM in the test with MCF7 breast; 19.2 µM in the test with MDA-MB-231 breast. Moreover, the GI50 in the test with MDA-MB-435 was 17.4 µM; in the test with OVCAR-3 ovarian, 0.904 µM; with OVCAR-4 ovarian, > 80.7 µM; in the test with SF-295 CNS, 1.11 µM. The TGI was 0.355 µM in the test on A498 renal; > 100 µM in the test on HCT-15 colon; > 100 µM in the test on HT29 colon; 34.7 µM in the test with MALME-3M melanoma; 33.2 µM with MCF7 breast; > 75.8 µM in the test with MDA-MB-231 breast. Further, the TGI is > 100 µM in the test with MDA-MB-435, > 66.3 µM with OVCAR-3 ovarian, > 100 µM with OVCAR-4 ovarian and 19.9 µM in the test with SF-295 CNS.
`N#CCC12CC=CCC1=C(O)C(=O)c1ccc(O)cc12` (stereo not given): the TGI with A498 renal, with HCT-15 colon, in the test with HT29 colon, in the test on MALME-3M melanoma, in the test on MCF7 breast and in the test with MDA-MB-231 breast was > 100 µM each time. The TGI in the test on MDA-MB-435, in the test on OVCAR-3 ovarian, with OVCAR-4 ovarian and with SF-295 CNS was > 100 µM throughout.
